Measured values published in article PMC7385626 (Scientific Reports, 2020).
Several values for one entry are separate records, joined by “and”; a condition that tells them apart may be missing. Equal entries are not always repeated.

Experiments:
[1] = test system: HeLa, HT29, C6 and Vero cells; test: BrdU Cell Proliferation Assay, range over the cell lines; type: cell-based; settings: BrdU assay
Source text: (§1) The antiproliferative activities of Ag(I) molecules and the starting molecules of the parent molecules, N-bishydeten and [Ag(CN)2]^− compound, on cells, were monitored utilizing by the BrdU Cell Proliferation Assay (BCPA) (Fig. 6).
(§2) The antiproliferative activity of the 2, 3, 4, [Ag(CN)2]^− and 5FU against various cell lines (HeLa ATCC CCL-2, C6 cells ATCC CCL-107, HT29 ATCC HTB-38, and Vero ATCC CCL-81) were preserved and maintained in Dulbecco’s modified eagle’s medium, supplemented with %2 antibiotic (Streptomycin-Penicillin) solution and 10% fetal bovine serum.
(§3) The cell suspension including 5×10^3 cells in 100 µL was supplied into the well cell plates (96-well cell). The therapies of these cells with 2, 3, 4 and [Ag(CN)2]^− in DMSO (max 0.1% DMSO) and 5-Florouracil (5 FU) molecule in DMSO (max 0.1% DMSO) separately at concentration 0.25, 0.50, 1.00, 1.50, 2.00, 2.50, 3.75, and 5.00 µg/mL were carried out. The last volume was adapted to 200 µL by mixture and DMEM and also incubated for 24 h at 37°C with 5% CO2. The antiproliferative activities of the 2, 3, 4 and [Ag(CN)2]^− were determined with using BrdU Cell proliferation ELISA Kit conforming to manufacturer’s assay.
(§4) IC50 values the concentration of a factor which required for other method of in vitro.

S. aureus ATCC29213 [2] = test: Disc diffusion assay; type: cell-based, Staphylococcus aureus
Description: (§5) Therefore, the pathogen bacterial flora and the opportunistic agents may be taken into consideration both in the management of cancer patients and in individual susceptibility to cancer. Indeed, dual acting factors with antimicrobial and antiproliferative potentials can result in improved therapeutic efficacy for cancer cell patients or reduced cancer predisposition. […]. In this study, 10 microbial cultures of this part, belonging to ten types of bacterial were used. The culture was grown in Mueller–Hinton Broth (Merck) for all the bacterial strains at 36 °C. Antimicrobial test was carried out by using disc-diffusion assay utilizing 100 µL of suspension with 10^8 CFU/mL of bacteria and 10^6 CFU/mL of yeast spread on Nutrient Agar and Potato Dextrose Agar, respectively. Also, the blank disc (Oxoid = 6 mm in diameter) was impregnated with 20 µL of each substance (105 µg/disc) and placed on the inoculated agar. Negative controls ([…]) were prepared using the same solvent (water) employed to dissolve each substance. […]. The inoculated plate was incubated at 36 °C for clinical bacterial strains. Antimicrobial activities were evaluated by obtaining the zone of inhibitory effect against the test organisms.

B. cereus DSM 4312 [3] = test: Serial microdilution assay (MIC); type: cell-based, Bacillus Cereus
Description: (§6) […]. […] Four types of gram-positive bacterial strains (St. pyogenez, B. subtilis, B. cereus, S. aureus) and five types of the gram-negative (S. enteridis, E. aerogenes, P. aeruginosa, E. coli, and S. gallinarum) were sensitive to 4 and 1. […]. The minimal inhibitory concentration value was studied for the microorganism cells, which evaluated to sensitive the substances and they tested in the disc-diffusion method. Inoculate of microorganism was prepared utilizing 12 h suspensions and broth cultures were adjusted to 0.5 McFarland turbidity standard. Each substance was dissolved in 10% dimethyl sulfoxide which diluted to the highest concentration (1000 µg/mL) for testing. […]. Also, prepared suspensions for standard microorganisms were added to each dilution in a 1:1 ratio. Growth act of microorganism cells was determined visually after incubation at 36 °C. The minimum concentration was no visible growth which was taken as the MIC.

St. pyogenez ATCC176 [4] = test: Serial microdilution assay (MIC); type: cell-based, Steptococcus Pyogerez
Description: as §6

E. aerogenes 2924 = test: Disc diffusion assay; type: cell-based, Enterobacter Aerogenes
Description: as §5

B. cereus DSM 4312 [5] = test: Disc diffusion assay; type: cell-based, Bacillus Cereus
Description: as §5

S. aureus ATCC29213 [6] = test: Serial microdilution assay (MIC); type: cell-based, Staphylococcus aureus
Description: as §6

BSA = BSA (Bos taurus, UniProt P02769); test: UV–Visible absorption titration, BSA binding constant; parameters: species or system Bovine
Source text: UV–Visible absorption spectroscopy technique was also used to study interactions between BSA and 1–4. […] The some results of [BSA]/(εa − εf) = [BSA]/(εb − εf) + 1/[Kb(εb − εf)] in Fig. 9, used and also obtained. The binding constants for the 1–4 were found as 2.4 ± 0.22 × 10^4 M^−1, 4.3 ± 0.29 × 10^4 M^−1, 3.4 ± 0.23 × 10^4 M^−1 and 4.8 ± 0.29 × 10^4 M^−1, respectively. In Fig. 9, the increase in BSA concentrations leads to a change in the absorption of the complexes resulting in hypochromism for 1 and 3 and hyperchromism for 2 and 4.
To obtain the interaction act of the molecules with calf thymus DNA and also to determine the binding constants (Kb) UV–Visible absorption spectroscopy method was utilized. Indeed, 2.5 mg calf thymus DNA in this part was dissolved in Tris–HCl buffer and stabile pending seven days in the refrigerator. The concentration level of calf thymus DNA was calculated spectrophotometrically assay at 260 nm. This method was done according to previous studies.

St. pyogenez ATCC176 [7] = test: Disc diffusion assay; type: cell-based, Steptococcus Pyogerez
Description: as §5

S. gallinarum [8] = test: Disc diffusion assay; type: cell-based, Salmonella Gallinarum
Description: as §5

E. coli 111 [9] = test: Disc diffusion assay; type: cell-based, Escherichia coli
Description: as §5

S. enteridis ATCC13076 [10] = test: Serial microdilution assay (MIC); type: cell-based, Salmonella Enteritidis
Description: as §6

B. subtilis ATCC6633 [11] = test: Disc diffusion assay; type: cell-based, Bacillus Subtilis
Description: as §5

[12] = test system: bacterial strains (four gram-positive, five gram-negative); test: Serial microdilution assay (MIC), range over the bacterial strains; type: cell-based
Description: as §6

P. aeruginosa ATCC9027 = test: Serial microdilution assay (MIC); type: cell-based, Pseudomonas Aureginosa
Description: as §6

S. enteridis ATCC13076 [13] = test: Disc diffusion assay; type: cell-based, Salmonella Enteritidis
Description: as §5

S. gallinarum [14] = test: Serial microdilution assay (MIC); type: cell-based, Salmonella Gallinarum
Description: as §6

E. aerogenes ATCC2924 = test: Serial microdilution assay (MIC); type: cell-based, Enterobacter Aerogenes
Description: as §6

E. coli 111 [15] = test: Serial microdilution assay (MIC); type: cell-based, Escherichia coli
Description: as §6

B. subtilis ATCC6633 [16] = test: Serial microdilution assay (MIC); type: cell-based, Bacillus Subtilis
Description: as §6

HT29 = test: BrdU Cell Proliferation Assay (BCPA); type: cell-based, human; settings: BrdU ELISA, 24 h, mean ± SD of three experiments
Source text: as §1, §2, §3, §4

HeLa = test: BrdU Cell Proliferation Assay (BCPA); type: cell-based; settings: BrdU ELISA, 24 h, mean ± SD of three experiments
Source text: as §1, §2, §3, §4

Vero = test: BrdU Cell Proliferation Assay (BCPA); type: cell-based; settings: BrdU ELISA, 24 h, normal cell line, mean ± SD of three experiments
Source text: as §1, §2, §3, §4

C6 = test: BrdU Cell Proliferation Assay (BCPA); type: cell-based; settings: BrdU ELISA, 24 h, mean ± SD of three experiments
Source text: as §1, §2, §3, §4

HT29 cells = settings: human
Source text: (§7) LDH activities were measurement at 492-630 nm using a microplate reader. The percentage cytotoxicity was find with using the equation, […], where experimental value is the test-molecule treated cells, and high control is Triton X-100 treated cells, and low standard or control (spontaneous LDH enzyme) is the untreated cells.

CT-DNA = settings: literature comparison; ref [59],[60]; cited from earlier work
in vitro = settings: human (HT-29, HeLa), rat (C6), African green monkey (Vero)
Source text: as §7

NCCN(CCO)CCO [N-bishydeten, N, N-bis (2-hydroxyethyl) -ethylenediamine, reference compound]
antiproliferative effect (in words) ([1]; same administrative dose, data not shown): no antiproliferative effects

[Ni(N-bishydeten)Ag3(CN)5] [Complex 1]
inhibition zones, S. aureus ATCC29213 (S. aureus ATCC29213 [2]): 18 ± 0.58 mm
Minimum-inhibitory concentrations (MIC), B. cereus DSM 4312 (B. cereus DSM 4312 [3]): 62.50 ± 18.04 µg/mL
MIC, St. pyogenez (St. pyogenez ATCC176 [4]): 15.62 µg/mL
Minimum-inhibitory concentrations (MIC), St. pyogenez ATCC176 (St. pyogenez ATCC176 [4]): 15.62 ± 9.02 µg/mL
inhibition zones, E. aerogenes 2924 (E. aerogenes 2924): 15 ± 1.0 mm
inhibition zones, B. cereus DSM 4312 (B. cereus DSM 4312 [5]): 20 ± 1.0 mm
Minimum-inhibitory concentrations (MIC), S. aureus ATCC29213 (S. aureus ATCC29213 [6]): 62.50 ± 36.08 µg/mL
binding constant with BSA (BSA): 2.4 ± 0.22 × 10^4 M^−1 and 2.4 x 10^4
inhibition zones, St. pyogenez ATCC176 (St. pyogenez ATCC176 [7]): 15 ± 0.0 mm
inhibition zones, S. gallinarum (S. gallinarum [8]): 17 ± 0.58 mm
inhibition zones, E. coli 111 (E. coli 111 [9]): 19 ± 0.58 mm
Minimum-inhibitory concentrations (MIC), S. enteridis ATCC13076 (S. enteridis ATCC13076 [10]): 62.50 ± 17.97 µg/mL
inhibition zones, B. subtilis ATCC6633 (B. subtilis ATCC6633 [11]): 14 ± 1.53 mm
MIC, joint range for 4 and 1 over the strains [12]: 15.62 to 125 µg/mL
Minimum-inhibitory concentrations (MIC), P. aeruginosa ATCC9027 (P. aeruginosa ATCC9027): 62.50 ± 18.04 µg/mL
inhibition zones, S. enteridis ATCC13076 (S. enteridis ATCC13076 [13]): 18 ± 0.58 mm
MIC, S. gallinarum (S. gallinarum [14]): 31.25 µg/mL
Minimum-inhibitory concentrations (MIC), S. gallinarum (S. gallinarum [14]): 31.25 ± 0.0 µg/mL
MIC, E. aerogenes (E. aerogenes ATCC2924): 15.62 µg/mL
Minimum-inhibitory concentrations (MIC), E. aerogenes ATCC2924 (E. aerogenes ATCC2924): 15.62 ± 0.0 µg/mL
Minimum-inhibitory concentrations (MIC), E. coli 111 (E. coli 111 [15]): 62.50 ± 0.0 µg/mL
Minimum-inhibitory concentrations (MIC), B. subtilis ATCC6633 (B. subtilis ATCC6633 [16]): 62.50 ± 0.0 µg/mL

N.N.[Cl][Pt][Cl] [Cisplatin, cisplatin, reference compound]
IC50 (HT29): 153 ± 14 µM
IC50 ([1]; HeLa, HT29, C6, Vero): 153 to 235 µM
IC50 (HeLa): 230 ± 15 µM
IC50 (Vero): 235 ± 19 µM
IC50 (C6): 208 ± 23 µM

O=c1[nH]cc(F)c(=O)[nH]1 [5FU, 5-fluorouracil, reference compound]
cytotoxicity against HT29 cells (LDH) (HT29 cells): 9–11%
IC50 (HT29; Homo sapiens, HT-29): 258 ± 21 µM
binding constant with DNA (reported) (CT-DNA): 97000 M⁻¹
cytotoxicity (in vitro): 15 to 25%
IC50 (HeLa; Homo sapiens, HeLa): 276 ± 17 µM
IC50 (Vero; Chlorocebus sabaeus, Vero): 258 ± 21 µM
IC50 (C6; Rattus norvegicus, C6): 217 ± 19 µM
